Results: ChEMBL document CHEMBL5356971, “Optimization of the Antibacterial Spectrum and the Developability Profile of the Novel-Class Natural Product Corramycin” (J Med Chem, 2023)

What was measured:
Escherichia coli [1] = assay: Antibacterial activity against wild type Escherichia coli ATCC 35218 assessed as reduction in microbial growth incubated for 20 to 22 hrs by CLSI based analysis; format: functional; details: time 20-22 hrs
Acinetobacter baumannii [2] = assay: Antibacterial activity against wild type Acinetobacter baumannii ATCC 19606 assessed as reduction in microbial growth incubated for 20 to 22 hrs by CLSI based analysis; format: functional; details: time 20-22 hrs
[3] = Metabolic stability in mouse lung assessed as parent compound remaining measured after 1 hrs by UPLC-MS analysis; format: ADME, tissue-based; details: mouse lung, read-out: Stability
Klebsiella pneumoniae [4] = assay: Antibacterial activity against Klebsiella pneumoniae ATCC 13883 harboring SbmA assessed as reduction in microbial growth incubated for 20 to 22 hrs by CLSI based analysis; format: functional; details: time 20-22 hrs
[5] = Metabolic stability in mouse kidney assessed as parent compound remaining measured after 4 hrs by UPLC-MS analysis; format: ADME, tissue-based; details: read-out: Stability
[6] = Metabolic stability in mouse lung assessed as parent compound remaining measured after 4 hrs by UPLC-MS analysis; format: ADME, tissue-based; details: mouse lung, read-out: Stability
Escherichia coli [7] = assay: Antibacterial activity against Escherichia coli ATCC 35218 harboring SbmA assessed as reduction in microbial growth incubated for 20 to 22 hrs by CLSI based analysis; format: functional; details: time 20-22 hrs
Klebsiella pneumoniae [8] = assay: Antibacterial activity against wild type Klebsiella pneumoniae ATCC 13883 assessed as reduction in microbial growth incubated for 20 to 22 hrs by CLSI based analysis; format: functional; details: time 20-22 hrs
[9] = Metabolic stability in mouse kidney assessed as parent compound remaining measured after 1 hrs by UPLC-MS analysis; format: ADME, tissue-based; details: read-out: Stability
Escherichia coli [10] = assay: Antibacterial activity against Escherichia coli ATCC 35218 assessed as reduction in microbial growth incubated for 20 to 22 hrs by CLSI based analysis; format: functional; details: time 20-22 hrs
Klebsiella pneumoniae [11] = assay: Antibacterial activity against Klebsiella pneumoniae ATCC 13883 assessed as reduction in microbial growth incubated for 20 to 22 hrs by CLSI based analysis; format: functional; details: time 20-22 hrs
Acinetobacter baumannii [12] = assay: Antibacterial activity against Acinetobacter baumannii ATCC 19606 assessed as reduction in microbial growth incubated for 20 to 22 hrs by CLSI based analysis; format: functional; details: time 20-22 hrs

| Compound | MIC (Escherichia coli [1]) | MIC (Acinetobacter baumannii [2]) | remaining at 1 h [3] | MIC (Klebsiella pneumoniae [4]) | remaining at 4 h [5] | remaining at 4 h [6] | MIC (Escherichia coli [7]) | MIC (Klebsiella pneumoniae [8]) | remaining at 1 h [9] | MIC (Escherichia coli [10]) | MIC (Klebsiella pneumoniae [11]) | MIC (Acinetobacter baumannii [12]) |
| --- | --- | --- | --- | --- | --- | --- | --- | --- | --- | --- | --- | --- |
| CO[C@@H](CNC(=O)[C@H](NC(=O)[C@H](O)[C@H](C)O)[C@H](O)c1cncn1C)[C@H](O)[C@H](O)C(=O)N(C)[C@@H](Cc1ccccc1)C(=O)NCC(=O)N[C@H](C(=O)N[C@@H](CO)C(=O)N[C@H](C(=O)N[C@H](C(=O)N[C@@H](CO)C(=O)N[C@H](CCC(=O)NCc1cc(=O)c(O)cn1O)C(=O)O)C(C)(C)C)C(C)(C)O)C(C)(C)O | < 0.01 µg/mL | 0.5 µg/mL | 89% | 32 µg/mL | 67% | 77% | 1 µg/mL | 0.03 µg/mL | 100% | – | – | – |
| CO[C@@H](CNC(=O)[C@H](NC(=O)[C@H](O)[C@H](C)O)[C@H](O)c1cncn1C)[C@H](O)[C@H](O)C(=O)N(C)[C@@H](Cc1ccccc1)C(=O)NCC(=O)N[C@H](C(=O)N[C@@H](CO)C(=O)N[C@H](C(=O)N[C@@H](C)C(=O)N[C@@H](CO)C(=O)O)C(C)(C)O)C(C)(C)O | – | – | – | – | – | – | – | – | – | 8 µg/mL | 64 µg/mL | > 32 µg/mL |
| CO[C@@H](CNC(=O)[C@H](NC(=O)[C@H](O)[C@H](C)O)[C@H](O)c1cncn1C)[C@H](O)[C@H](O)C(=O)N(C)[C@@H](Cc1ccccc1)C(=O)NCC(=O)N[C@H](C(=O)N[C@@H](CO)C(=O)N[C@@H](C)C(=O)N[C@@H](CC(C)C)C(=O)N[C@@H](CO)C(=O)O)C(C)(C)O | – | – | – | – | – | – | – | – | – | 32 µg/mL | 64 µg/mL | > 32 µg/mL |
| CO[C@@H](CNC(=O)[C@H](N)[C@H](O)c1cncn1C)[C@H](O)[C@H](O)C(=O)N(C)[C@@H](Cc1ccccc1)C(=O)NCC(=O)N[C@H](C(=O)N[C@@H](CO)C(=O)N[C@H](C(=O)N[C@@H](CC(C)C)C(=O)N[C@@H](CO)C(=O)O)C(C)(C)O)C(C)(C)O | – | – | – | – | – | – | – | – | – | > 64 µg/mL | > 64 µg/mL | > 32 µg/mL |
| CO[C@@H](CNC(=O)[C@H](NC(=O)[C@H](O)[C@H](C)O)[C@H](O)c1cncn1C)[C@H](O)[C@H](O)C(=O)N(C)[C@@H](Cc1ccccc1)C(=O)O | – | – | – | – | – | – | – | – | – | > 64 µg/mL | – | – |
| CO[C@@H](CNC(=O)[C@H](NC(=O)[C@H](O)[C@H](C)O)[C@H](O)c1cncn1C)[C@H](O)[C@H](O)C(=O)N(C)[C@@H](Cc1ccccc1)C(=O)NCC(=O)N[C@H](C(=O)N[C@@H](CO)C(=O)O)C(C)(C)O | – | – | – | – | – | – | – | – | – | > 64 µg/mL | – | – |
| CO[C@@H](CNC(=O)[C@H](NC(=O)[C@H](O)[C@H](C)O)[C@H](O)c1cncn1C)[C@H](O)[C@H](O)C(=O)N(C)[C@@H](Cc1ccccc1)C(=O)NCC(=O)N[C@H](C(=O)N[C@@H](CO)C(=O)N[C@H](C(=O)O)C(C)(C)O)C(C)(C)O | – | – | – | – | – | – | – | – | – | > 64 µg/mL | – | – |
| CO[C@@H](CNC(=O)[C@H](NC(=O)[C@H](O)[C@H](C)O)[C@H](O)c1cncn1C)[C@H](O)[C@H](O)C(=O)N(C)[C@@H](Cc1ccccc1)C(=O)NCC(=O)N[C@H](C(=O)N[C@@H](CO)C(=O)N[C@H](C(=O)N[C@@H](CC(C)C)C(=O)N[C@@H](CO)C(=O)N[C@@H](CCC(=O)NCc1cc(=O)c(O)cn1O)C(=O)O)C(C)(C)O)C(C)(C)O | 0.03 µg/mL | 0.5 µg/mL | 1% | 8 µg/mL | 0% | 0% | 0.12 µg/mL | 0.25 µg/mL | 22% | – | – | – |
| CO[C@@H](CNC(=O)[C@H](NC(=O)[C@H](O)[C@H](C)O)[C@H](O)c1cncn1C)[C@H](O)[C@H](O)C(=O)N(C)[C@@H](Cc1ccccc1)C(=O)NCC(=O)N[C@H](C(=O)N[C@@H](CO)C(=O)N[C@H](C(=O)N[C@@H](CC(C)C)C(=O)O)C(C)(C)O)C(C)(C)O | – | – | – | – | – | – | – | – | – | 32 µg/mL | – | – |
| CO[C@@H](CNC(=O)[C@H](NC(=O)[C@H](O)[C@H](C)O)[C@H](O)c1cncn1C)[C@H](O)[C@H](O)C(=O)N(C)[C@@H](Cc1ccccc1)C(=O)NCC(=O)N[C@H](C(=O)N[C@@H](CO)C(=O)N[C@H](C(=O)N[C@@H](CC(C)C)C(=O)N[C@@H](C)C(=O)O)C(C)(C)O)C(C)(C)O | – | – | – | – | – | – | – | – | – | 4 µg/mL | 16 µg/mL | > 32 µg/mL |
| CO[C@@H](CNC(=O)[C@H](NC(=O)[C@H](O)[C@H](C)O)[C@H](O)c1cncn1C)[C@H](O)[C@H](O)C(=O)N(C)[C@@H](Cc1ccccc1)C(=O)NCC(=O)N[C@@H](C)C(=O)N[C@@H](CO)C(=O)N[C@H](C(=O)N[C@@H](CC(C)C)C(=O)N[C@@H](CO)C(=O)O)C(C)(C)O | – | – | – | – | – | – | – | – | – | > 32 µg/mL | > 32 µg/mL | > 32 µg/mL |
| CC[C@H](C)[C@H](NC(=O)[C@@H](NC(=O)[C@H](CO)NC(=O)[C@@H](NC(=O)CNC(=O)[C@H](Cc1ccccc1)N(C)C(=O)[C@@H](O)[C@@H](O)[C@H](CNC(=O)[C@H](NC(=O)[C@H](O)[C@H](C)O)[C@H](O)c1cncn1C)OC)C(C)(C)O)C(C)(C)O)C(=O)N[C@@H](CO)C(=O)N[C@@H](CCC(=O)NCc1cc(=O)c(O)cn1O)C(=O)O | 0.03 µg/mL | 0.5 µg/mL | 73% | 32 µg/mL | 42% | 33% | 0.25 µg/mL | 0.12 µg/mL | 84% | – | – | – |
| CO[C@@H](CNC(=O)[C@H](NC(=O)[C@H](O)[C@H](C)O)[C@H](O)c1cncn1C)[C@H](O)[C@H](O)C(=O)N(C)[C@@H](Cc1ccc(F)cc1)C(=O)NCC(=O)N[C@H](C(=O)N[C@@H](CO)C(=O)N[C@H](C(=O)N[C@H](C(=O)N[C@@H](CO)C(=O)NCc1ccc(O)c(O)c1)C(C)(C)C)C(C)(C)O)C(C)(C)O | 0.03 µg/mL | 0.5 µg/mL | 0% | – | 0% | 0% | – | 0.25 µg/mL | 6% | – | – | – |
| CO[C@@H](CNC(=O)[C@H](NC(=O)[C@H](O)[C@H](C)O)[C@H](O)c1cncn1C)[C@H](O)[C@H](O)C(=O)N(C)[C@@H](Cc1ccc(F)cc1)C(=O)NCC(=O)N[C@H](C(=O)N[C@@H](CO)C(=O)N[C@H](C(=O)N[C@H](C(=O)N[C@@H](CCC(=O)NCc1cc(=O)c(O)cn1O)C(=O)O)C(C)(C)C)C(C)(C)O)C(C)(C)O | 0.01 µg/mL | 0.25 µg/mL | 101% | > 32 µg/mL | 101% | 86% | 0.25 µg/mL | 0.12 µg/mL | 92% | – | – | – |
| CO[C@@H](CNC(=O)[C@H](NC(=O)[C@H](O)[C@H](C)O)[C@H](O)c1cncn1C)[C@H](O)[C@H](O)C(=O)N(C)[C@@H](Cc1ccc(F)cc1)C(=O)NCC(=O)N[C@H](C(=O)N[C@@H](CO)C(=O)N[C@H](C(=O)N[C@H](C(=O)N[C@@H](CCC(=O)NCc1cc(=O)c(O)cn1O)C(=O)NCCN)C(C)(C)C)C(C)(C)O)C(C)(C)O | 0.01 µg/mL | 1 µg/mL | 88% | > 32 µg/mL | 41% | 75% | 4 µg/mL | 0.12 µg/mL | 61% | – | – | – |
| CO[C@@H](CNC(=O)[C@H](NC(=O)[C@H](O)[C@H](C)O)[C@H](O)c1cncn1C)[C@H](O)[C@H](O)C(=O)N(C)[C@@H](Cc1ccccc1)C(=O)N[C@@H](C)C(=O)N[C@H](C(=O)N[C@@H](CO)C(=O)N[C@H](C(=O)N[C@H](C(=O)N[C@@H](CO)C(=O)NCc1cc(=O)c(O)cn1O)C(C)(C)C)C(C)(C)O)C(C)(C)O | 0.06 µg/mL | 1 µg/mL | 91% | > 32 µg/mL | 75% | 85% | 1 µg/mL | 1 µg/mL | 85% | – | – | – |
| CO[C@@H](CNC(=O)[C@H](NC(=O)[C@H](O)[C@H](C)O)[C@H](O)c1cncn1C)[C@H](O)[C@H](O)C(=O)N(C)[C@@H](Cc1ccc(F)cc1)C(=O)NCC(=O)N[C@H](C(=O)N[C@@H](CO)C(=O)N[C@H](C(=O)N[C@H](C(=O)N[C@@H](CO)C(=O)NCc1cccc(O)c1O)C(C)(C)C)C(C)(C)O)C(C)(C)O | 0.06 µg/mL | 0.5 µg/mL | 0% | – | 0% | 0% | – | 0.5 µg/mL | 11% | – | – | – |
| CO[C@@H](CNC(=O)[C@H](NC(=O)[C@H](O)[C@H](C)O)[C@H](O)c1cncn1C)[C@H](O)[C@H](O)C(=O)N(C)[C@@H](Cc1ccccc1)C(=O)NCC(=O)N[C@H](C(=O)N[C@@H](CO)C(=O)N[C@H](C(=O)N[C@H](C(=O)N[C@@H](CO)C(=O)NCc1cc(=O)c(O)cn1O)C(C)(C)C)C(C)(C)O)C(C)(C)O | < 0.01 µg/mL | 0.5 µg/mL | 84% | > 32 µg/mL | 84% | 73% | 0.5 µg/mL | 0.03 µg/mL | 99% | – | – | – |
| CO[C@@H](CNC(=O)[C@H](NC(=O)[C@H](O)[C@H](C)O)[C@H](O)c1cncn1C)[C@H](O)[C@H](O)C(=O)N(C)[C@@H](Cc1ccccc1)C(=O)NCC(=O)N[C@H](C(=O)N[C@@H](CO)C(=O)N[C@H](C(=O)N[C@H](C(=O)N[C@@H](CO)C(=O)N[C@@H](CN)C(=O)NCc1cc(=O)c(O)cn1O)C(C)(C)C)C(C)(C)O)C(C)(C)O | 0.02 µg/mL | 0.25 µg/mL | 87% | > 32 µg/mL | 83% | 75% | 4 µg/mL | 0.25 µg/mL | 93% | – | – | – |
